From ChEMBL document CHEMBL2074546, “Inhibition of P-glycoprotein by flavonoid derivatives in adriamycin-resistant human myelogenous leukemia (K562/ADM) cells” (Cancer Lett, 2002)

Molecular target: ATP-dependent translocase ABCB1 (Homo sapiens, UniProt P08183)
Assay: TP_TRANSPORTER: increase in Vincristine intracellular accumulation (0.025 uM) in K562/ADM cells
Format: functional, cell-based
Settings: k562/adr

Chain of ATP-dependent translocase ABCB1 (P08183 whole entry): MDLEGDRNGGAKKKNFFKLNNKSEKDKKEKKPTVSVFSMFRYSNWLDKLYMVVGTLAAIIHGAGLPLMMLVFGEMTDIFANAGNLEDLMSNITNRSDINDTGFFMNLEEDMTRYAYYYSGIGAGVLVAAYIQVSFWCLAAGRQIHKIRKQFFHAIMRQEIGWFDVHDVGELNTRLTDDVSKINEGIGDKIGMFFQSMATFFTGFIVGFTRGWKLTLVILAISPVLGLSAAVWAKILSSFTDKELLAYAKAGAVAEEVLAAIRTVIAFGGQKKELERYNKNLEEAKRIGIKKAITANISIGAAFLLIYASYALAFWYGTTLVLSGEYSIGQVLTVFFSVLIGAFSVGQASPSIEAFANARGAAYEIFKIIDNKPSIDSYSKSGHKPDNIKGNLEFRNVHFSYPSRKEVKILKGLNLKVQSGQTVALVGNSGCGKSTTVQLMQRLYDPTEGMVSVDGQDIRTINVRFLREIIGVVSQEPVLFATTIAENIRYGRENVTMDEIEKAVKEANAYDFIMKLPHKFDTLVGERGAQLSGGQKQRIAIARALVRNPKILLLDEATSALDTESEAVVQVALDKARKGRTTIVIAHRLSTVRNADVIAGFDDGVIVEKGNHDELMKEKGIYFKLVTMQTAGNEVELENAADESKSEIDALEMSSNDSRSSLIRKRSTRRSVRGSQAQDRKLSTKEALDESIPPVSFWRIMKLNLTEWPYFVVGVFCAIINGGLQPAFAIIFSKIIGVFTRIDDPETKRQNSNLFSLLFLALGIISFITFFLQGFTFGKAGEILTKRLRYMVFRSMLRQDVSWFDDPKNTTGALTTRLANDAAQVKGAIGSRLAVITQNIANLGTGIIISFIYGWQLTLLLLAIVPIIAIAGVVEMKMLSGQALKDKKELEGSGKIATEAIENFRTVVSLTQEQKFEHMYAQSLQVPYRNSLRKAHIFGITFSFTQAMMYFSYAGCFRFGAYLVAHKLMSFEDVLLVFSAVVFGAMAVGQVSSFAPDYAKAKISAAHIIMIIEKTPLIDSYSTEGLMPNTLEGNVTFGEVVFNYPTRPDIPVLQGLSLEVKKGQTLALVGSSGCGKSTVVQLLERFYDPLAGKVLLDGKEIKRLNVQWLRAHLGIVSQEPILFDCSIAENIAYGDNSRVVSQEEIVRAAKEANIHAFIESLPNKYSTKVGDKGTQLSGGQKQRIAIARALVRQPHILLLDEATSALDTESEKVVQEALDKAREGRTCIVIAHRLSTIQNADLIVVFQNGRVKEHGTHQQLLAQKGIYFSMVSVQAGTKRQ

With C=CCOc1ccc(-c2oc3cc(OCC=C)cc(O)c3c(=O)c2OCC=C)c(OCC=C)c1 [MORIN PENTAALLYL ETHER] the Activity was “inhibitor [(at a rough estimate) 500 % of control]”.
For CCOc1ccc(-c2oc3cc(OCC)cc(O)c3c(=O)c2OCC)c(OCC)c1 [MORIN PENTAETHYL ETHER], the Activity was “inhibitor [(at a rough estimate) 1430 % of control]”.
For COc1ccc(-c2oc3cc(OC)cc(O)c3c(=O)c2OC)c(OC)c1 [MORIN PENTAMETHYL ETHER], the Activity was “inhibitor [(at a rough estimate) 470 % of control]”.
With CCCOc1ccc(-c2oc3cc(OCCC)cc(O)c3c(=O)c2OCCC)c(OCCC)c1 [MORIN PENTAPROPYL ETHER] the Activity was “inhibitor [(at a rough estimate) 390 % of control]”.
